pIC50: −log10 of the molar value.

For experiment [1], the target named is T1, Phosphatidylinositol 3-kinase C2 domain-containing subunit gamma (Homo sapiens) (UniProt O75747).
T1 sequence (whole entry): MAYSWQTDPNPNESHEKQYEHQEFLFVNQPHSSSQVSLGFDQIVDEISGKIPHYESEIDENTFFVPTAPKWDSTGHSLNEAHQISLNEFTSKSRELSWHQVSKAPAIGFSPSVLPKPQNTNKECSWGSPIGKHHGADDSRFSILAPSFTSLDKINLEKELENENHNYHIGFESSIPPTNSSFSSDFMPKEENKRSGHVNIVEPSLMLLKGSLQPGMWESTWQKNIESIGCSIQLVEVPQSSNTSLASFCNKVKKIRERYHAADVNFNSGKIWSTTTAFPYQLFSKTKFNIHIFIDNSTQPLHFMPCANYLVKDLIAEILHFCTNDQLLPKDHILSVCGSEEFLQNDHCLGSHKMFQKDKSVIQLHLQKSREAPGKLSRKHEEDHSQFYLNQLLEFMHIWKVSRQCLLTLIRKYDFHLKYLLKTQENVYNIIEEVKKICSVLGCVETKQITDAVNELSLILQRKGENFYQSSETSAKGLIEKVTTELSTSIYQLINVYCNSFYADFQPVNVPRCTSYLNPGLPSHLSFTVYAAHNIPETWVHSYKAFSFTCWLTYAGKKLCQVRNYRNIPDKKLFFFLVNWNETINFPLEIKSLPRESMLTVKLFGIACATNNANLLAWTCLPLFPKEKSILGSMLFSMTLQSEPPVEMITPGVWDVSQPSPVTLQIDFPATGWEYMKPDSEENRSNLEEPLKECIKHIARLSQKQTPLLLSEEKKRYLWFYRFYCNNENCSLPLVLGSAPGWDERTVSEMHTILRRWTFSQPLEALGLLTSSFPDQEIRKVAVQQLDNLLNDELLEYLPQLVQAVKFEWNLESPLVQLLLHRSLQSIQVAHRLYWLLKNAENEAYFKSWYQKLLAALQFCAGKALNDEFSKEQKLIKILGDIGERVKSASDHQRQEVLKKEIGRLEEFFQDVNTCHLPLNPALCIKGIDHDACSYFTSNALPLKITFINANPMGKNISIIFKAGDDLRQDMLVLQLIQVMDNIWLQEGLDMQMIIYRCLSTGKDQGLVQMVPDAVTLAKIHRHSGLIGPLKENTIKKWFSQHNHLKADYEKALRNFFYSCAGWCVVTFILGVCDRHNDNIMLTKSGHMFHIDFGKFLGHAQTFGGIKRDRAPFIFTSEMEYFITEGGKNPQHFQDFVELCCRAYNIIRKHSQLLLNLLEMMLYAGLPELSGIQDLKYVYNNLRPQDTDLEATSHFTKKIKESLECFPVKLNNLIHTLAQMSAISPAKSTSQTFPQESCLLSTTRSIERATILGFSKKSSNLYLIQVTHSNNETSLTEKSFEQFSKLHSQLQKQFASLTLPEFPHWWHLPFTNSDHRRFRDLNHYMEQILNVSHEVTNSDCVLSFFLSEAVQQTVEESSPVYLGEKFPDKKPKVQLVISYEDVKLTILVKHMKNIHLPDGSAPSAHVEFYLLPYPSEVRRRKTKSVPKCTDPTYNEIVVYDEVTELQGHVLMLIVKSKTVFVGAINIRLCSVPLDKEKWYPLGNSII
In words: Selectivity interaction (Adapta Assay) EUB0001632a PIK3C2G. To be noted: at 10 µM.

The target in experiment [2] is T2, Bone morphogenetic protein receptor type-2 (Homo sapiens) (UniProt Q13873).
T2 sequence (whole entry): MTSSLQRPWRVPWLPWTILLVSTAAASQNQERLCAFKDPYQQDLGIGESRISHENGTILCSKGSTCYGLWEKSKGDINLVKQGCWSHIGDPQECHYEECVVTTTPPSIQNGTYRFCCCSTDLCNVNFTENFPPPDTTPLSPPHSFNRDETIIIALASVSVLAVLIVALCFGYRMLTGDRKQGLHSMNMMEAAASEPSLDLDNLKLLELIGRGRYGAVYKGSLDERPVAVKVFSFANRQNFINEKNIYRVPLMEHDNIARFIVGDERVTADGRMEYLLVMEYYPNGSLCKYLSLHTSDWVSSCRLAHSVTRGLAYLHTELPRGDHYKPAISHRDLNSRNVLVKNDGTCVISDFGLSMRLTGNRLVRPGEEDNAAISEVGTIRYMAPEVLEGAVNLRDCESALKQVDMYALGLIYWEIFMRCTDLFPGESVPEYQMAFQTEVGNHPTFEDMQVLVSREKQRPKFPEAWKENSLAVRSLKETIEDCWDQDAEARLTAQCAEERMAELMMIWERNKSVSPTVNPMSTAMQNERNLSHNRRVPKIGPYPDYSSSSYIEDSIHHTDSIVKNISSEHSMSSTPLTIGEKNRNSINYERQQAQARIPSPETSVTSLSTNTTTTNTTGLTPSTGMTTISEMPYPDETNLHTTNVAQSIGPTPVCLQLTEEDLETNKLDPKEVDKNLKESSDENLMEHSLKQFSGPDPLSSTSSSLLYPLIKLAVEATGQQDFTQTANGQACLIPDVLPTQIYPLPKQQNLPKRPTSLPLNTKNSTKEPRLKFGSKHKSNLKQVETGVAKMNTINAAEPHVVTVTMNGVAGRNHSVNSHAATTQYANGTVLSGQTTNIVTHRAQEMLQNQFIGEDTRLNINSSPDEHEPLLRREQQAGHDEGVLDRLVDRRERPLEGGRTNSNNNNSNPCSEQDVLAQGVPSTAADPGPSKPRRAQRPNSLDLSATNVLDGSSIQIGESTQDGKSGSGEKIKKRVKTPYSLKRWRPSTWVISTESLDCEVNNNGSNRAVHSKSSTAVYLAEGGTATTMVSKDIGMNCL
The experiment in a line: Selectivity interaction (KinomeScan (DiscoverX)) EUB0000229b BMPR2. To be noted: at 10 µM.

The target in experiment [3] is Dual specificity protein kinase CLK3 (Homo sapiens, UniProt P49761). The experiment in a line: Selectivity interaction (KinomeScan (DiscoverX)) EUB0000229b CLK3. The conditions noted are these: at 10 µM.
Experiment [4] addresses Protein kinase C theta type (Homo sapiens, UniProt Q04759). The conditions noted are these: at 10 µM.
The target in experiment [5] is Serine/threonine-protein kinase 16 (Homo sapiens, UniProt O75716). The experiment in a line: Selectivity interaction (Enzymatic assay) EUB0001550a STK16.
The test system of experiment [6] is Epidermal growth factor receptor (Homo sapiens), P00533 [UNDEFINED MUTATION]. The experiment in a line: Selectivity interaction (KinomeScan (DiscoverX)) EUB0000045b EGFR. The conditions noted are these: at 1 µM.
Epidermal growth factor receptor (Homo sapiens), P00533 [UNDEFINED MUTATION], sequence (P00533 whole entry, looked up, change not shown): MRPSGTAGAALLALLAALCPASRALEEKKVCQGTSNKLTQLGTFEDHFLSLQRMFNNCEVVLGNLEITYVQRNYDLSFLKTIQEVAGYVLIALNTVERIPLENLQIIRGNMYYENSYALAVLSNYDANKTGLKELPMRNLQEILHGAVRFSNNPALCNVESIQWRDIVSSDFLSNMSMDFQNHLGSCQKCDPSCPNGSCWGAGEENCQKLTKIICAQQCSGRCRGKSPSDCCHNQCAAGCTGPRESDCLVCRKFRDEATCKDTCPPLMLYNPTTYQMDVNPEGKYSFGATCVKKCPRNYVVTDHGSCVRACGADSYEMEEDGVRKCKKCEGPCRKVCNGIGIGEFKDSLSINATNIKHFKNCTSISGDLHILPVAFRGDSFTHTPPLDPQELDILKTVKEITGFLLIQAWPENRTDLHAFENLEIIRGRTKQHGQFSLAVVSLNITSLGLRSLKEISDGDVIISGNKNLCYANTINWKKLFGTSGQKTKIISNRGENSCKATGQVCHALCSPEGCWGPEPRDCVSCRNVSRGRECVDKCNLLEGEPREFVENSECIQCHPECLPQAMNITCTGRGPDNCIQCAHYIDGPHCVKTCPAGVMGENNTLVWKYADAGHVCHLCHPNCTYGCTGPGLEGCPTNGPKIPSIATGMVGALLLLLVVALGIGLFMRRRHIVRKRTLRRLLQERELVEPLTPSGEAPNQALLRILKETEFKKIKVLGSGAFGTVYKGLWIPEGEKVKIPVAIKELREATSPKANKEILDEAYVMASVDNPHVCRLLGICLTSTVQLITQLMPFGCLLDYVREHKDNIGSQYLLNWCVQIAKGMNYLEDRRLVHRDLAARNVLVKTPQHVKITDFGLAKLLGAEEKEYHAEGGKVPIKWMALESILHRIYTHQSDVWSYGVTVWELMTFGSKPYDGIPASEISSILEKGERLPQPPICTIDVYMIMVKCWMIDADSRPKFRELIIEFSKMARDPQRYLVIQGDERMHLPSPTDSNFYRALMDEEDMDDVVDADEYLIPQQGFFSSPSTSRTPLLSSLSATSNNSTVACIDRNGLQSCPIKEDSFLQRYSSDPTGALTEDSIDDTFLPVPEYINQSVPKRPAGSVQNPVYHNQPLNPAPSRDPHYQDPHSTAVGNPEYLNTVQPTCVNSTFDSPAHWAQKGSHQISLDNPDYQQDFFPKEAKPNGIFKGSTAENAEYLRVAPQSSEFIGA

Protein kinase C theta type, sequence (Q04759 whole entry, looked up): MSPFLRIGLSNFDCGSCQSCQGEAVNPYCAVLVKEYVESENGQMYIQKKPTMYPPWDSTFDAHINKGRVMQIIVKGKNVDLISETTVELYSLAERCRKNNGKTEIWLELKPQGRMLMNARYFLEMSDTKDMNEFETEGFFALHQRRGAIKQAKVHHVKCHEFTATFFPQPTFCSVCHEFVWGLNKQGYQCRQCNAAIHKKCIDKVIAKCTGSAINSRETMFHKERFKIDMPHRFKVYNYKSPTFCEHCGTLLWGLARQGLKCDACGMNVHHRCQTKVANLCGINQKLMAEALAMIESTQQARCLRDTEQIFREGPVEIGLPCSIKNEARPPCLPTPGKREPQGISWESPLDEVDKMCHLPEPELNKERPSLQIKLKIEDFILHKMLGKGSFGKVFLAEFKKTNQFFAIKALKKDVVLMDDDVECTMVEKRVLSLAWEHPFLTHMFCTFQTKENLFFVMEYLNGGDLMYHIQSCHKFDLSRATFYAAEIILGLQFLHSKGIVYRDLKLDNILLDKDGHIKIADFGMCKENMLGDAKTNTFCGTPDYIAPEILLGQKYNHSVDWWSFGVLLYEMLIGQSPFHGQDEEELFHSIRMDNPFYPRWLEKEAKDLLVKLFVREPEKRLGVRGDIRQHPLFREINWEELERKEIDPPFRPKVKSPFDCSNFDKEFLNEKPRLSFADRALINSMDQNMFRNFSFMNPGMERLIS
Dual specificity protein kinase CLK3, sequence (P49761 whole entry, looked up): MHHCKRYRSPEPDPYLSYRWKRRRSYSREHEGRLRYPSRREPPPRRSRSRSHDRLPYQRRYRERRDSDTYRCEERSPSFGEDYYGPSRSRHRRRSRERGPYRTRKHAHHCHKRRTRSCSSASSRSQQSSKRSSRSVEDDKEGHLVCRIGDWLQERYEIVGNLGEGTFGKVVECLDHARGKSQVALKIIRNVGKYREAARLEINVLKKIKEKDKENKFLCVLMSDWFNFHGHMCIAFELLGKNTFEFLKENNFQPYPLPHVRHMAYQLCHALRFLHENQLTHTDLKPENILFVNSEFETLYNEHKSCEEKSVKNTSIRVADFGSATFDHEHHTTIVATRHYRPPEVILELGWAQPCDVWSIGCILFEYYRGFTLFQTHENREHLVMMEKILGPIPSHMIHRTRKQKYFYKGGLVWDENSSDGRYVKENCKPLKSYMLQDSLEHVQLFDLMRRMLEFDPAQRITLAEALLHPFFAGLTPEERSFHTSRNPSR
Serine/threonine-protein kinase 16, sequence (O75716 whole entry): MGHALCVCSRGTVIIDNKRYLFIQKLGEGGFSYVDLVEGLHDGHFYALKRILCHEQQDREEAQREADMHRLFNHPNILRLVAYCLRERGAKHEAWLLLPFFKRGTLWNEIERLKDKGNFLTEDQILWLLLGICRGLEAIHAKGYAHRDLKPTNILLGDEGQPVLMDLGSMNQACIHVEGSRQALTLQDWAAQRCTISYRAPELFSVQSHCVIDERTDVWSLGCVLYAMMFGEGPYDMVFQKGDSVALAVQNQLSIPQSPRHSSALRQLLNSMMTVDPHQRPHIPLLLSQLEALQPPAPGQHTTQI

As for `Cn1cc(-n2cnc3c(NCc4nc5cc(Cl)c(Cl)cc5[nH]4)nc(N4CCOCC4)nc32)cn1`, in experiment [1], the % of inhibition is -0.366%.
Turning to `COc1cc(N(C)c2ccnc3ccc(C(F)(F)F)cc23)cc(OC)c1OC`, the % binding came to 94% in experiment [2] and 59% in experiment [3].
As to `CCN(CC)CCCCNc1ncc2cc(-c3cc(OC)cc(OC)c3)c(NC(=O)NC(C)(C)C)nc2n1`, in experiment [4], the % of control came to 100%.
One may read the pIC50 as the negative decadic logarithm of the IC50, by convention in mol/L. Take `CN(C)CC#Cc1ccc2[nH]c3c(c2c1)-c1nc(N)ncc1CCC3`: the negative logarithm of the IC50 (pIC50) in experiment [5] is 6.25.
On to `C=CC(=O)Nc1cc(-n2c(=O)ccc3cnc4ccc(-c5ccc(NS(C)(=O)=O)cc5)cc4c32)ccc1C`, for which, in experiment [6], the % of control came to 66%.

The values are drawn from ChEMBL document CHEMBL5465560, “Selectivity Literature for EUbOPEN Chemogenomic Library” (2024).
